# Data as given in patent US20110165649A1, “METHODS AND COMPOSITIONS TO IMPROVE THE HEALTH OF PLANTS, ANIMALS AND MICROBES BY MANIPULATING PROTEIN ENTRY INTO SYMBIONTS AND THEIR HOSTS” (priority 2010, published 2011).
# “Also recorded” adds a separate entry of the source.
# How the values were obtained:
# [1] = tested on: P. sojae hyphae; experiment: Binding and entry of fluorescent lipid-binding fusion proteins, P. sojae hyphae, confocal microscopy; assay type: cell-based, Phytophthora sojae
# Protocol: A, Phosphatidylinositol-4-phosphate (PI-4-P) on the surface of P. sojae membranes mediates selective protein entry. Phosphatidylinositol-4-phosphate adaptor protein-1 (FAPP1)-mCherry, FAPP1-GFP, mCHerry alone or phosphatidylinositol-3-phosphate-binding PH-domain protein-1 (PEPP1)-GFP proteins (1 mg/ml) were incubated together with P. sojae hyphae for 12 hr, then washed extensively. Left panels show fluorescence image; right panels show the matching light micrograph.
# To test for the presence of PI-3-P and PI-4-P on P. sojae hyphae, and the ability of those phosphoinositides to carry binding proteins into the hyphae, the pleckstrin-homology (PH) domains of the human proteins phosphatidylinositol-3-phosphate-binding PH-domain protein-1 (PEPP1) and phosphatidylinositol-4-phosphate adaptor protein-1 (FAPP1), respectively, were utilized (Dowler et al., 2000). […] To create biosensors capable of detecting PI-3P and PI-4-P in vivo, the PH domain of PEPP1 was fused to green fluorescent protein (GFP) and the PH domain of FAPP1 was fused to the modified red fluorescent protein, mCherry. (Sequences of the nucleic acids used for the production of these proteins, and the amino acid sequences corresponding to the same, are presented in FIGS. 6 A and B ([…]) and FIGS. 7 A and B (GST-FAPP1-mCherry. PEPP1-GFP and FAPP1-mCherry proteins (1 mg/ml in 25 mM 2-(N-morpholino)ethanesulfonic acid (MES) pH 5.8) were incubated with P. sojae hyphae for 6 hr at 25° C. then washed for 30 min with 25 mM MES pH 5.8, before being photographed using a Zeiss LSM510 laser scanning confocal microscope with an argon laser excitation wavelength of 488 nm for GFP or with a HeNe laser at a wavelength of 543 nm for mCherry.
# [2] = tested on: soybean root suspension culture cells / soybean root tips; experiment: Binding and entry of fluorescent lipid-binding fusion proteins, soybean root cells; assay type: cell-based; details: 1 mg/ml in 25 mM MES pH 5.8, 4° C., suspension culture cells 6 hr or root tips 12 hr
# Protocol: B, Detection of PI-3-P but not PI-4-P on the surface of soybean cells. PEPP1-GFP or FAPP1-GFP proteins (1 mg/ml in 25 mM MES pH 5.8) were incubated with soybean root suspension culture cells for 6 hr or with soybean root tips for 12 hr at 4° C. then washed for 2 hr with 25 mM MES pH 5.8, then plasmolyzed with 0.8M Mannitol (suspension culture cells) or 4M NaCl (roots) for 30 minutes, before being photographed. Left panels show fluorescence image; right panels show the matching light micrograph. Plasma membranes are indicated by the white arrow heads.
# [3] = tested on: Human lung adenocarcinoma cells A549; experiment: Binding and entry of fluorescent lipid-binding fusion proteins, human lung cells; assay type: cell-based; details: 1 mg/ml in DPBS
# Protocol: C, Detection of PI-3-P but not PI-4-P on the surface of human lung cells PEPP1-mCherry or FAPP1-mCherry proteins [1 mg/ml in Dulbecco's Phosphate Buffer Saline (Ca^+2/Mg^+2 free) (DPBS; Gibco)] were incubated with Human lung adenocarcinoma cells A549 (ATCC CCL-185) for 8 hr at 4° C. or 37° C. then washed twice briefly with DPBS, before being photographed. Left panels show fluorescence image; right panels show the matching light micrograph. […] FIGS. 1B and C were adapted from FIGS. 3 and 5 respectively from Kale et al 2010. External lipid PI-3-P mediates entry of eukaryotic pathogen effectors into plant and animal host cells. Cell 142:284-295.
# [4] = 1 mg/ml in 25 mM MES pH 5.8, 6 hr at 25° C., confocal microscopy
# [5] = hyphae stained simultaneously with PEPP1-GFP and FAPP1-mCherry
substance,measurement,setting,value
FAPP1-mCherry: PH domain of human FAPP1 (PI-4-P-binding) fused to the modified red fluorescent protein mCherry; SEQ ID NO: 8,binding to the membrane of P. sojae hyphae,[1]; [4],bound to the membrane of P. sojae hyphae
same,entry into P. sojae hyphae,[1]; [4],entered into the cells in abundance; also recorded: entered P. sojae hyphae
same,"cellular entry, P. sojae hyphae",[1]; [5],cellular entry
same,"membrane binding, P. sojae hyphae",[1]; [5],strong membrane binding
same,entry into soybean cells,[2],not
same,binding to the surface of soybean cells,[2]; plasmolyzed,not
same,binding to the surface of human A549 cells,[3]; 8 hr at 4° C. (endocytosis inhibited),not and neither binds to the surface of the cells and does neither
same,entry into human A549 cells,[3]; 8 hr at 37° C. (endocytosis active),not and nor enters the cells and does neither
